From ChEMBL document CHEMBL2440076, “New triarylpyrazoles as broad-spectrum anticancer agents: design, synthesis, and biological evaluation” (Eur J Med Chem, 2013)

Legend:
Assay type in all cases: functional
COLO 205 = assay: Growth inhibition of human COLO205 cells assessed as cell growth at 5X10'-6 M after 48 hrs by sulforhodamine B assay; conditions: COLO 205, 48 h, read-out: Activity
M14 = assay: Growth inhibition of human M14 cells assessed as cell growth at 5X10'-5 M after 48 hrs by sulforhodamine B assay; conditions: M14, 48 h, read-out: Activity
SNB-19 = assay: Growth inhibition of human SNB19 cells assessed as cell growth at 5X10'-9 M after 48 hrs by sulforhodamine B assay; conditions: SNB-19, 48 h, read-out: Activity
LOX IMVI [1] = assay: Growth inhibition of human LOXIMVI cells assessed as cell growth at 5X10'-9 M after 48 hrs by sulforhodamine B assay; conditions: read-out: Activity
NCI-H23 = assay: Growth inhibition of human NCI-H23 cells assessed as cell growth at 5X10'-7 M after 48 hrs by sulforhodamine B assay; conditions: NCI-H23, 48 h, read-out: Activity
OVCAR-3 [2] = assay: Growth inhibition of human OVCAR3 cells assessed as cell growth at 5X10'-9 M after 48 hrs by sulforhodamine B assay; conditions: OVCAR-3, 48 h, read-out: Activity
[3] = Growth inhibition of human HCC2998 cells assessed as cell growth at 5X10'-6 M after 48 hrs by sulforhodamine B assay; conditions: HCC 2998, 48 h, read-out: Activity
OVCAR-4 = assay: Growth inhibition of human OVCAR4 cells assessed as cell growth at 5X10'-5 M after 48 hrs by sulforhodamine B assay; conditions: OVCAR-4, 48 h, read-out: Activity
MDA-MB-435 = assay: Growth inhibition of human MDA-MB-435 cells assessed as cell growth at 5X10'-6 M after 48 hrs by sulforhodamine B assay; conditions: MDA-MB-435, 48 h, read-out: Activity
U-251 [4] = assay: Growth inhibition of human U251 cells assessed as cell growth at 5X10'-9 M after 48 hrs by sulforhodamine B assay; conditions: U-251, 48 h, read-out: Activity
HL-60(TB) = assay: Growth inhibition of human HL-60(TB) cells assessed as cell growth at 5X10'-7 M after 48 hrs by sulforhodamine B assay; conditions: HL-60, 48 h, read-out: Activity
SW-620 [5] = assay: Growth inhibition of human SW620 cells assessed as cell growth at 5X10'-5 M after 48 hrs by sulforhodamine B assay; conditions: SW-620, 48 h, read-out: Activity
[6] = Growth inhibition of human NCI-ADR-RES cells assessed as cell growth at 5X10'-5 M after 48 hrs by sulforhodamine B assay; conditions: read-out: Activity
U-251 [7] = assay: Growth inhibition of human U251 cells assessed as cell growth at 5X10'-5 M after 48 hrs by sulforhodamine B assay; conditions: U-251, 48 h, read-out: Activity
PC-3 [8] = assay: Growth inhibition of human PC3 cells assessed as cell growth at 5X10'-5 M after 48 hrs by sulforhodamine B assay; conditions: PC-3, 48 h, read-out: Activity
T47D = assay: Growth inhibition of human T47D cells assessed as cell growth at 5X10'-5 M after 48 hrs by sulforhodamine B assay; conditions: read-out: Activity
SF-539 [9] = assay: Growth inhibition of human SF539 cells assessed as cell growth at 5X10'-7 M after 48 hrs by sulforhodamine B assay; conditions: SF-539, 48 h, read-out: Activity
SK-MEL-2 = assay: Growth inhibition of human SK-MEL-2 cells assessed as cell growth at 5X10'-5 M after 48 hrs by sulforhodamine B assay; conditions: SK-MEL-2, 48 h, read-out: Activity
A498 [10] = assay: Growth inhibition of human A498 cells assessed as cell growth at 5X10'-6 M after 48 hrs by sulforhodamine B assay; conditions: A498, 48 h, read-out: Activity
HOP-92 = assay: Growth inhibition of human HOP92 cells assessed as cell growth at 5X10'-6 M after 48 hrs by sulforhodamine B assay; conditions: HOP-92, 48 h, read-out: Activity
SK-OV-3 [11] = assay: Growth inhibition of human SKOV3 cells assessed as cell growth at 5X10'-6 M after 48 hrs by sulforhodamine B assay; conditions: SK-OV-3, 48 h, read-out: Activity
LOX IMVI [12] = assay: Growth inhibition of human LOXIMVI cells assessed as cell growth at 5X10'-7 M after 48 hrs by sulforhodamine B assay; conditions: read-out: Activity
OVCAR-3 [13] = assay: Growth inhibition of human OVCAR3 cells assessed as cell growth at 5X10'-5 M after 48 hrs by sulforhodamine B assay; conditions: OVCAR-3, 48 h, read-out: Activity
SW-620 [14] = assay: Growth inhibition of human SW620 cells assessed as cell growth at 5X10'-6 M after 48 hrs by sulforhodamine B assay; conditions: SW-620, 48 h, read-out: Activity
SK-MEL-5 [15] = assay: Growth inhibition of human SK-MEL-5 cells assessed as cell growth at 5X10'-7 M after 48 hrs by sulforhodamine B assay; conditions: SK-MEL-5, 48 h, read-out: Activity
SK-OV-3 [16] = assay: Growth inhibition of human SKOV3 cells assessed as cell growth at 5X10'-9 M after 48 hrs by sulforhodamine B assay; conditions: SK-OV-3, 48 h, read-out: Activity
HOP-62 = assay: Growth inhibition of human HOP62 cells assessed as cell growth at 5X10'-5 M after 48 hrs by sulforhodamine B assay; conditions: HOP-62, 48 h, read-out: Activity
CAKI-1 = assay: Growth inhibition of human CAKI-1 cells assessed as cell growth at 5X10'-6 M after 48 hrs by sulforhodamine B assay; conditions: CAKI-1, 48 h, read-out: Activity
UO-31 = assay: Growth inhibition of human UO31 cells assessed as cell growth at 5X10'-9 M after 48 hrs by sulforhodamine B assay; conditions: UO-31, 48 h, read-out: Activity
PC-3 [17] = assay: Growth inhibition of human PC3 cells assessed as cell growth at 5X10'-8 M after 48 hrs by sulforhodamine B assay; conditions: PC-3, 48 h, read-out: Activity
A498 [18] = assay: Growth inhibition of human A498 cells assessed as cell growth at 5X10'-8 M after 48 hrs by sulforhodamine B assay; conditions: A498, 48 h, read-out: Activity
MDA-MB-468 = assay: Growth inhibition of human MDA-MB-468 cells assessed as cell growth at 5X10'-5 M after 48 hrs by sulforhodamine B assay; conditions: MDA-MB-468, 48 h, read-out: Activity
RPMI-8226 = assay: Growth inhibition of human RPMI8226 cells assessed as cell growth at 5X10'-9 M after 48 hrs by sulforhodamine B assay; conditions: RPMI-8226, 48 h, read-out: Activity
ACHN = assay: Growth inhibition of human ACHN cells assessed as cell growth at 5X10'-7 M after 48 hrs by sulforhodamine B assay; conditions: read-out: Activity
SF-539 [19] = assay: Growth inhibition of human SF539 cells assessed as cell growth at 5X10'-5 M after 48 hrs by sulforhodamine B assay; conditions: SF-539, 48 h, read-out: Activity
[20] = Growth inhibition of human Hs 578T cells assessed as cell growth at 5X10'-5 M after 48 hrs by sulforhodamine B assay; conditions: read-out: Activity
SK-MEL-5 [21] = assay: Growth inhibition of human SK-MEL-5 cells assessed as cell growth at 5X10'-9 M after 48 hrs by sulforhodamine B assay; conditions: SK-MEL-5, 48 h, read-out: Activity

Compound: COc1cc(-c2nn(-c3cccc(NC(=O)c4cccc(C(F)(F)F)c4)c3)cc2-c2ccncc2)ccc1Cl
- growth at 5 µM (COLO 205): 1%
- growth at 50 µM (M14): 12%
- growth at 0.005 µM (SNB-19): 100%
- growth at 0.005 µM (LOX IMVI [1]): 94%
- growth at 0.5 µM (NCI-H23): 86%
- growth at 0.005 µM (OVCAR-3 [2]): 105%
- growth at 5 µM [3]: 21%
- growth at 50 µM (OVCAR-4): 29%
- growth at 5 µM (MDA-MB-435): -56%
- growth at 0.005 µM (U-251 [4]): 94%
- growth at 0.5 µM (HL-60(TB)): 103%
- growth at 50 µM (SW-620 [5]): 19%
- growth at 50 µM [6]: -9%
- growth at 50 µM (U-251 [7]): 3%
- growth at 50 µM (PC-3 [8]): 14%
- growth at 50 µM (T47D): 21%
- growth at 0.5 µM (SF-539 [9]): 81%
- growth at 50 µM (SK-MEL-2): 6%
- growth at 5 µM (A498 [10]): -21%
- growth at 5 µM (HOP-92): -14%
- growth at 5 µM (SK-OV-3 [11]): 24%
- growth at 0.5 µM (LOX IMVI [12]): 84%
- growth at 50 µM (OVCAR-3 [13]): -38%
- growth at 5 µM (SW-620 [14]): 30%
- growth at 0.5 µM (SK-MEL-5 [15]): 86%
- growth at 0.005 µM (SK-OV-3 [16]): 96%
- growth at 50 µM (HOP-62): 51%
- growth at 5 µM (CAKI-1): 24%
- growth at 0.005 µM (UO-31): 82%
- growth at 0.05 µM (PC-3 [17]): 99%
- growth at 0.05 µM (A498 [18]): 80%
- growth at 50 µM (MDA-MB-468): -32%
- growth at 0.005 µM (RPMI-8226): 98%
- growth at 0.5 µM (ACHN): 81%
- growth at 50 µM (SF-539 [19]): -23%
- growth at 50 µM [20]: 13%
- growth at 0.005 µM (SK-MEL-5 [21]): 98%
